Experimental data reported in the supplement of paper PMC10307832.

Tests used:
Assay in all cases: relative viability (nuclei count vs DMSO), 5 days (fraction); higher = more cells survive
Dasatinib = compound: Cc1nc(Nc2ncc(C(=O)Nc3c(C)cccc3Cl)s2)cc(N2CCN(CCO)CC2)n1 [Dasatinib]
How it was run: (§1)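 Following overnight incubation at 37 °C, lung cancer cell lines in 1536-well plates were pinned with five library-drug doses (not always all listed) in √10 steps on vehicle-anchored plates. The cells then spent 5 days without medium change before a combined fix, permeabilisation and Hoechst stain, 4× imaging and MetaXpress nuclear counts. Viability is the treated-to-vehicle ratio of nuclei, taken as the median across plates. Only plates with control CV below 25% and at least one doubling passed.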

ALW-II-49-7 = compound: Cc1ccc(C(=O)Nc2cccc(C(F)(F)F)c2)cc1Nc1cncc(C(N)=O)c1 [ALW-II-49-7]
How it was run: as §1

XMD13-2 = compound: C1CC1C(=O)NC2=NNC3=C2C=CC(=C3)C4=CC(=CC=C4)C(=O)NC5CC5 [XMD13-2]
How it was run: as §1

Cell Line: UMC-11
- relative viability (Dasatinib; 0.005 µM): 0.916
- relative viability (Dasatinib; 0.01581 µM): 0.801
- relative viability (Dasatinib; 0.05 µM): 0.63
- relative viability (Dasatinib; 0.075 µM, anchor plate): 0.479
- relative viability (Dasatinib; 0.1581 µM): 0.415
- relative viability (Dasatinib; 0.5 µM): 0.37
- relative viability (ALW-II-49-7; 0.08 µM): 1.01
- relative viability (ALW-II-49-7; 0.253 µM): 1.02
- relative viability (ALW-II-49-7; 0.8 µM): 0.975
- relative viability (ALW-II-49-7; 2.53 µM): 1.02
- relative viability (ALW-II-49-7; 8 µM): 1.01
- relative viability (XMD13-2; 0.05 µM): 1.12
- relative viability (XMD13-2; 0.1581 µM): 0.945
- relative viability (XMD13-2; 0.5 µM): 0.993
- relative viability (XMD13-2; 1.581 µM): 0.887
- relative viability (XMD13-2; 5 µM): 1.01
